Consider nine compounds from US20260070945A1, “MACROCYCLIC IMMUNOMODULATORS” (Bristol-Myers Squibb Company, priority 2022, published 2026).

*1 amine or outer side, *2 acyl side, *3 side chain or, on linkers, in order; H or OH if unused. Where a SMILES comes first, the peptide text is derived from it. Bridges are numbered along the chain shown (N, C = ends). [ ]: non-standard residue; d: D form. The star is where a group is joined. ξ: configuration not given here. Trp(1-Me) = Cn1cc(C[C@H](N)C(=O)O)c2ccccc21; Bip = N[C@@H](Cc1ccc(-c2ccccc2)cc1)C(=O)O; Phe(3-Me) = Cc1cccc(C[C@H](N)C(=O)O)c1; NMeAEEA = CN(CCOCCOCC(=O)[*:2])[*:1]; 4Pal = N[C@@H](Cc1ccncc1)C(=O)O; Cha = N[C@@H](CC1CCCCC1)C(=O)O; Cit = NC(=O)NCCC[C@H](N)C(=O)O; Ile(3ξ) = CCC(C)[C@H](N)C(=O)O; Thr(3ξ) = CC(O)[C@H](N)C(=O)O; 12Ado = NCCCCCCCCCCCC(=O)O; Carboxymethyl = O=C(O)C*; NMeA = CN[C@@H](C)C(=O)O; Orn = NCCC[C@H](N)C(=O)O; Aun = NCCCCCCCCCCC(=O)O; Dab = NCC[C@H](N)C(=O)O; Dap = NC[C@H](N)C(=O)O

The target of this assay is T1, PD-1/PD-L1 interaction (PE-labeled human PD-L1-Ig binding to Jurkat cell line over-expressing human PD-1) (Homo sapiens, UniProt Q15116).
T1 construct: expressed in transfected cells; host or cells: Jurkat
T1 sequence (Q15116 25-288): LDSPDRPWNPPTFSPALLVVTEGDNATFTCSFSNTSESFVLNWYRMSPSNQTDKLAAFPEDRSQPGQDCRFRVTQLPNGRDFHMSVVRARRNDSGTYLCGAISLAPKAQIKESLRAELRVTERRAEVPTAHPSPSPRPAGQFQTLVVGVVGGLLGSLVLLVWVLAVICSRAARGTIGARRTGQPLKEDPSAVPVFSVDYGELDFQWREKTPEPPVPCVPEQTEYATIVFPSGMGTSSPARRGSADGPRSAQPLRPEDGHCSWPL
The experiment in a line: Jurkat-PD-1 Cell Binding High-Content Screening Assay (CBA). Particulars: Jurkat-hPD-1 cells, PE-labeled PD-L1-Ig 20 nM final; read-out: Jurkat HPD1 PDL1 IC50. Summed up: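 Jurkat-hPD-1 cells (8×10^3/well) in DMEM with 10% fetal calf serum were preincubated with compound for 2 h at 37 °C. PE-labeled PD-L1-Ig was then added at 20 nM final for 1 h. Cells were fixed in paraformaldehyde with Hoechst 33342, washed and imaged by high-content imaging.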
As to `CCC(C)[C@@H]1NC(=O)[C@H](Cc2ccc(-c3ccccc3)cc2)NC(=O)[C@H](C(C)C)NC(=O)[C@H](Cc2c[nH]c3ccccc23)NC(=O)[C@H](CC(=O)O)NC(=O)[C@H](Cc2ccc(OCC(=O)O)cc2)NC(=O)[C@H](C(C)O)NC(=O)CSC[C@@H](C(=O)N[C@@H](CCCN)C(=O)N[C@@H](CO)C(=O)NCCCCCCCCCCCC(=O)O)NC(=O)[C@H](CCCN)NC(=O)[C@H](C(C)C)NC(=O)[C@H](CC2CCCCC2)NC(=O)[C@H](CCN)NC(=O)[C@@H](CC(C)C)NC(=O)[C@H](C)N(C)C1=O` (stereo partly drawn) [Example 2408] ({CH2CO}-[Thr(3ξ)]Y(Carboxymethyl)DWV[Bip][Ile(3ξ)][NMeA][dL][Dab][Cha]V[Orn]C[Orn]S[12Ado]-OH; thioether N-14), the IC50 (in general, the midpoint of a concentration-inhibition curve) was found to be 228 nM.

As to `CCC(C)[C@@H]1NC(=O)[C@H](Cc2ccc(-c3ccccc3)cc2)NC(=O)[C@H](C(C)C)NC(=O)[C@H](Cc2c[nH]c3ccccc23)NC(=O)[C@H](CC(=O)O)NC(=O)[C@H](Cc2ccc(OCC(=O)O)cc2)NC(=O)[C@H](CN)NC(=O)CSC[C@@H](C(=O)N[C@@H](CCCN)C(=O)N[C@@H](CO)C(=O)NCCCCCCCCCCCC(=O)O)NC(=O)[C@H](C(C)O)NC(=O)[C@H](C(C)C)NC(=O)[C@H](CC2CCCCC2)NC(=O)[C@H](CCN)NC(=O)[C@@H](CC(C)C)NC(=O)[C@H](C)N(C)C1=O` (stereo partly drawn) [Example 2409] ({CH2CO}-[Dap]Y(Carboxymethyl)DWV[Bip][Ile(3ξ)][NMeA][dL][Dab][Cha]V[Thr(3ξ)]C[Orn]S[12Ado]-OH; thioether N-14), the IC50 amounted to 109 nM.

For the compound `CCC(C)[C@@H]1NC(=O)[C@H](Cc2ccc(-c3ccccc3)cc2)NC(=O)[C@H](C(C)C)NC(=O)[C@H](Cc2c[nH]c3ccccc23)NC(=O)[C@H](CC(=O)O)NC(=O)[C@H](Cc2ccc(OCC(=O)O)cc2)NC(=O)[C@H](C(C)O)NC(=O)CSC[C@@H](C(=O)N[C@@H](CCCN)C(=O)N[C@@H](CO)C(=O)NCCCCCCCCCCCC(=O)O)NC(=O)[C@H](C(C)O)NC(=O)[C@H](C(C)C)NC(=O)[C@H](CC2CCCCC2)NC(=O)[C@H](CCN)NC(=O)[C@@H](CC(C)C)NC(=O)[C@H](C)N(C)C1=O` (stereo partly drawn) [Example 2410] ({CH2CO}-[Thr(3ξ)]Y(Carboxymethyl)DWV[Bip][Ile(3ξ)][NMeA][dL][Dab][Cha]V[Thr(3ξ)]C[Orn]S[12Ado]-OH; thioether N-14), the IC50 was 108 nM.

Turning to `CC(=O)NCCCC[C@@H]1NC(=O)[C@H](CC2CCCCC2)NC(=O)[C@H](CCN)NC(=O)[C@@H](CC(C)C)NC(=O)[C@H](C)N(C)C(=O)[C@H](CCCNC(N)=O)NC(=O)[C@H](Cc2ccc(-c3ccccc3)cc2)NC(=O)[C@H](Cc2ccc(O)cc2)NC(=O)[C@H](Cc2cccc(C)c2)NC(=O)[C@H](CC(=O)O)NC(=O)[C@H](Cc2ccc(OCC(=O)O)cc2)NC(=O)[C@H](Cc2ccncc2)NC(=O)CSC[C@@H](C(=O)N[C@@H](CCCN)C(=O)N[C@@H](CO)C(=O)NCCCCCCCCCCCC(=O)O)NC(=O)[C@H](C(C)O)NC1=O` (stereo partly drawn) [Example 2411] ({CH2CO}-[4Pal]Y(Carboxymethyl)D[Phe(3-Me)]Y[Bip][Cit][NMeA][dL][Dab][Cha]K(Ac)[Thr(3ξ)]C[Orn]S[12Ado]-OH; thioether N-14), the IC50 worked out at 38.1 nM.

Turning to `Cc1cccc(C[C@@H]2NC(=O)[C@H](CC(=O)O)NC(=O)[C@H](Cc3ccc(OCC(=O)O)cc3)NC(=O)[C@H](C(C)O)NC(=O)CSC[C@@H](C(=O)N[C@@H](CCCN)C(=O)N[C@@H](CO)C(=O)NCCCCCCCCCCCC(=O)O)NC(=O)[C@H](C(C)O)NC(=O)[C@H](C(C)C)NC(=O)[C@H](CC3CCCCC3)NC(=O)[C@H](CCN)NC(=O)[C@@H](CC(C)C)NC(=O)[C@H](C)N(C)C(=O)[C@H](CCCNC(N)=O)NC(=O)[C@H](Cc3ccc(-c4ccccc4)cc3)NC(=O)[C@H](C(C)C)NC2=O)c1` (stereo partly drawn) [Example 2412] ({CH2CO}-[Thr(3ξ)]Y(Carboxymethyl)D[Phe(3-Me)]V[Bip][Cit][NMeA][dL][Dab][Cha]V[Thr(3ξ)]C[Orn]S[12Ado]-OH; thioether N-14), the IC50 turned out to be 12.9 nM.

For `Cc1cccc(C[C@@H]2NC(=O)[C@H](CC(=O)O)NC(=O)[C@H](Cc3ccc(OCC(=O)O)cc3)NC(=O)[C@H](CN)NC(=O)CSC[C@@H](C(=O)N[C@@H](CCCN)C(=O)N[C@@H](CO)C(=O)NCCCCCCCCCCCC(=O)O)NC(=O)[C@H](C(C)O)NC(=O)[C@H](C(C)C)NC(=O)[C@H](CC3CCCCC3)NC(=O)[C@H](CCN)NC(=O)[C@@H](CC(C)C)NC(=O)[C@H](C)N(C)C(=O)[C@H](CCCNC(N)=O)NC(=O)[C@H](Cc3ccc(-c4ccccc4)cc3)NC(=O)[C@H](C(C)C)NC2=O)c1` (stereo partly drawn) [Example 2413] ({CH2CO}-[Dap]Y(Carboxymethyl)D[Phe(3-Me)]V[Bip][Cit][NMeA][dL][Dab][Cha]V[Thr(3ξ)]C[Orn]S[12Ado]-OH; thioether N-14), the IC50 is 16.5 nM.

For the compound `Cc1cccc(C[C@@H]2NC(=O)[C@H](CC(=O)O)NC(=O)[C@H](Cc3ccc(OCC(=O)O)cc3)NC(=O)[C@H](CN)NC(=O)CSC[C@@H](C(=O)N(C)CCOCCOCC(=O)NCCCCCCCCCCC(=O)O)NC(=O)[C@H](CCCN)NC(=O)[C@H](C(C)C)NC(=O)[C@H](CC3CCCCC3)NC(=O)[C@H](CCN)NC(=O)[C@@H](CC(C)C)NC(=O)[C@H](C)N(C)C(=O)[C@H](C(C)C)NC(=O)[C@H](Cc3ccc(-c4ccccc4)cc3)NC(=O)[C@H](C(C)C)NC2=O)c1` [Example 2414] ({CH2CO}-[Dap]Y(Carboxymethyl)D[Phe(3-Me)]V[Bip]V[NMeA][dL][Dab][Cha]V[Orn]C[NMeAEEA][Aun]-OH; thioether N-14), the IC50 came to 45 nM.

For the compound `CC(=O)NCCCC[C@@H]1NC(=O)[C@H](Cc2ccc(-c3ccccc3)cc2)NC(=O)[C@H](C(C)C)NC(=O)[C@H](Cc2cccc(C)c2)NC(=O)[C@H](CC(=O)O)NC(=O)[C@H](Cc2ccc(OCC(=O)O)cc2)NC(=O)[C@H](CN)NC(=O)CSC[C@@H](C(=O)N(C)CCOCCOCC(=O)NCCCCCCCCCCC(=O)O)NC(=O)[C@H](CCCN)NC(=O)[C@H](C(C)C)NC(=O)[C@H](CC2CCCCC2)NC(=O)[C@H](CCN)NC(=O)[C@@H](CC(C)C)NC(=O)[C@H](C)N(C)C1=O` [Example 2415] ({CH2CO}-[Dap]Y(Carboxymethyl)D[Phe(3-Me)]V[Bip]K(Ac)[NMeA][dL][Dab][Cha]V[Orn]C[NMeAEEA][Aun]-OH; thioether N-14), the IC50 amounted to 41.2 nM.

Regarding `CCC(C)[C@@H]1NC(=O)[C@H](Cc2ccc(-c3ccccc3)cc2)NC(=O)[C@H](C(C)C)NC(=O)[C@H](Cc2cn(C)c3ccccc23)NC(=O)[C@H](CC(=O)O)NC(=O)[C@H](Cc2ccc(OCC(=O)O)cc2)NC(=O)[C@H](C(C)O)NC(=O)CSC[C@@H](C(=O)N[C@@H](CCCN)C(=O)NCCCCCCCCCCC(=O)O)NC(=O)[C@H](C(C)O)NC(=O)[C@H](C(C)C)NC(=O)[C@H](CC2CCCCC2)NC(=O)[C@H](CCN)NC(=O)[C@@H](CC(C)C)NC(=O)[C@H](C)N(C)C1=O` (stereo partly drawn) [Example 2416] ({CH2CO}-[Thr(3ξ)]Y(Carboxymethyl)D[Trp(1-Me)]V[Bip][Ile(3ξ)][NMeA][dL][Dab][Cha]V[Thr(3ξ)]C[Orn][Aun]-OH; thioether N-14), the IC50 was found to be 570 nM.
